Consider 1 compound from paper PMC5171807, “Five colour variants of bright luminescent protein for real-time multicolour bioimaging” (Nature Communications, 2016).

This experiment concerns the target T1, green eNL (GeNL) (Oplophorus gracilirostris, UniProt Q9GV45, A31E/Q38R/Q45L/L54V/A60N/K70R/V71I/A81I/F95D/L99Q/M102K/I117V/P142E/Q151K/Y165I/N193R).
T1 construct: single-chain fusion: C-terminally truncated mNeonGreen - two-residue linker - NanoLuc (N-terminal deletion 4); N-terminal His tag; E. coli; with mNeonGreen
Description: luminescence initial velocity (first […] s), Michaelis-Menten fit. The settings on record: 10 pM enzyme; furimazine 0.025-13 μM. The format is biochemical.

Each structure is given as a SMILES string.

T1 sequence (Q9GV45 30-196 with the stated changes): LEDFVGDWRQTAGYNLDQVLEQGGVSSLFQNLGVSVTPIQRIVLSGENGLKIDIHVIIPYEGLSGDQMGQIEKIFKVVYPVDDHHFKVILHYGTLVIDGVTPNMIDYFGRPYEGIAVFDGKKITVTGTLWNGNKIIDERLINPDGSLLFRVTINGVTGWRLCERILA

Turning to `O=c1c(Cc2ccco2)nc2c(Cc3ccccc3)[nH]c(-c3ccccc3)cn1-2` [furimazine], the Km entry was “enzymatic parameters (Km and kcat) of the eNLs and Nluc”.
